These are literature values, as cited in US20110160143A1, “Topical Acyl Glutathione Psoriasis Compositions” (priority 2009, published 2011).

SMILES strings stand for the structures.

The test system of this series is HIV patients. To be noted: oral administration.

With `O=C(O)CCCCC1CCSS1` (stereo not drawn) [alpha-lipoic acid, Alpha-lipoic acid], the glutathione levels entry was “raises glutathione levels”; the safety and tolerability entry is “extremely safe and well tolerated”.
